pIC50: −log10 of the molar value.
How the values were obtained:
[1] = test system: CRAC ion channel (ICRAC current); assay: Patch clamp inhibition of ICRAC current in Jurkat cells; type: cell-based, human; conditions: 1 μM compound, n=3
Method: In general, a whole cell patch clamp method was used to examine the effects of a compound of the invention on a channel that mediates Icrac. In such experiments, a baseline measurement was established for a patched cell. Then a compound to be tested was perfused (or puffed) to cells in the external solution and the effect of the compound on Icrac was measured. A compound that modulates Icrac (e.g., inhibits) is a compound that is useful in the invention for modulating CRAC ion channel activity.
Jurkat T cells were grown on glass coverslips, transferred to the recording chamber and kept in a standard modified Ringers solution of the following composition: NaCl 145 mM, KCl 2.8 mM, CsCl 10 mM, CaCl2 10 mM, MgCl2 2 mM, glucose 10 mM, HEPES.NaOH 10 mM, pH 7.2.
The external solution contained 10 mM CaNaR, 11.5 mM glucose and the test compound at the concentrations described below.
The standard intracellular pipette solution contained: Cs-glutamate 145 mM, NaCl 8 mM, MgCl2 1 mM, ATP 0.5 mM, GTP 0.3 mM, pH 7.2 adjusted with CsOH. […]
Patch-clamp experiments were performed in the tight-seal whole-cell configuration at 21-25° C. […] Capacitive currents and series resistance were determined and corrected before each voltage ramp using the automatic capacitance compensation of the EPC-9. […]

GM-CSF = assay: Cytokine inhibition in PHA-stimulated primary human PBMCs: GM-CSF; type: cell-based; conditions: PBMC
Method: (§1) Cytokine production was measured using commercially available human ELISA assay kits (from Cell Science, Inc.) following the manufacturers instructions.

IL-2 production [2] = assay: IL-2 production upon PMA/ionomycin stimulation in whole blood of dosed cynomolgus monkeys; type: in vivo; conditions: IV 5 mg/kg, 4 hours after dosing
Method: (§2) 3 male non-native cynomolgus monkeys were fasted overnight prior to and for four (4) hours following each dose. Each monkey was given a single intravenous dose of the appropriate test compound followed by a 1 mL rinse of saline to flush the catheter. The dose was infused over one hour using calibrated syringe pumps. Following a one week washout, the same three monkeys were given a single oral gavage dose of the appropriate test compound dose formulation followed by a 10 mL flush with tap water. Following a second one week washout, the same three monkeys received a second oral dose of the appropriate test compound dose formulation followed by a 10 mL flush with tap water. Following a third one week washout, the same three monkeys received a third oral dose of the appropriate test compound dose formulation followed by a 10 mL flush with tap water. Prior to and at 1, 2, and 4 hours following each dose (measured from the start of dosing for IV doses), blood samples ([…] for Group 1 and 2 mL/sample for Groups 2 and 3) were drawn into tubes containing sodium heparin and stored at room temperature, and the concentration of the test compounds in each sample was measured. CsA was included as a positive control.

IL-5 = assay: Cytokine inhibition in PHA-stimulated primary human PBMCs: IL-5; type: cell-based; conditions: PBMC
Method: as §1

TNF-α production = TNF-α production upon PMA/ionomycin stimulation in whole blood of dosed cynomolgus monkeys; type: in vivo; conditions: IV 5 mg/kg, 4 hours after dosing
Method: as §2

IL-13 = assay: Cytokine inhibition in PHA-stimulated primary human PBMCs: IL-13; type: cell-based; conditions: PBMC
Method: as §1

IL-2 = assay: Cytokine inhibition in PHA-stimulated primary human PBMCs: IL-2; type: cell-based; conditions: PBMC
Method: as §1

INF-γ = assay: Cytokine inhibition in PHA-stimulated primary human PBMCs: INF-γ; type: cell-based; conditions: PBMC
Method: as §1

IL-10 = assay: Cytokine inhibition in PHA-stimulated primary human PBMCs: IL-10; type: cell-based; conditions: PBMC
Method: as §1

[3] = test system: CRAC ion channel (ICRAC current); assay: Patch clamp inhibition of ICRAC current in primary T cells; type: cell-based; conditions: primary human T cells, varying concentrations
Method: Membrane currents of individual cells were recorded using the whole-cell configuration of the patch clamp technique with an EPC10 (HEKA Electronik, Lambrecht, Germany). Electrodes (2-5 MD in resistance) were fashioned from borosilicate glass capillary tubes (Sutter Instruments, Novato, Ca). The recordings were done at room temperature.
ICRAC currents were monitored every 2 seconds using a 50 msec protocol, where the voltage was ramped from −100 mV to +100 mV. The membrane potential was held at 0 mV between the test ramps. In a typical experiment the peak inward currents would develop within 50-100 seconds. Once the ICRAC currents were stabilized, the cells were perfused with compounds in the extracellular solution. At the end of an experiment the remaining ICRAC currents were then challenged with a control compound (SKF96365, 10 μM) to ensure that the current could still be inhibited.
The ICRAC current level was determined by measuring the inward current amplitude at −80 mV of the voltage ramp in an off-line analysis using MATLAB. The ICRAC current inhibition for each concentration was calculated using peak amplitude in the beginning of the experiment from the same cell. The IC50 value and Hill coefficient for each compound was estimated by fitting all the individual data points to a single Hill equation. […]

TNF-α = assay: Cytokine inhibition in PHA-stimulated primary human PBMCs: TNF-α; type: cell-based; conditions: PBMC
Method: as §1

RBL cells = assay: Inhibition of degranulation in RBL cells; type: cell-based; conditions: Rattus norvegicus, anti-DNP IgE / anti-IgE, read-out: concentration at which 50% of degranulation is inhibited
Method: Procedure: • The day before the assay was performed, RBL cells, that had been grown to confluence in a 96 well plate, were incubated at 37° C. for at least 2 hours. The medium was replaced in each well with 100 μL of fresh medium containing of anti-DNP IgE.
On the following day, the cells were washed once with PRS (2.6 mM glucose and 0.1% BSA) and 160 μL of PRS was added to each well. The test compound was addded to a well in a 20 μL solution at 10× of the desired concentration and incubated for 20 to 40 minutes at 37° C. 20 μL of 10× mouse anti-IgE (10 μL/mL). Maximum degranulation occurred between 15 to 40 minutes after addition of anti-IgE.

IL-4 = assay: Cytokine inhibition in PHA-stimulated primary human PBMCs: IL-4; type: cell-based; conditions: PBMC
Method: as §1

IL-2 production [4] = assay: Inhibition of IL-2 production in PHA-activated Jurkat cells (ELISA); type: cell-based; conditions: Homo sapiens, PHA 2.5 μg/mL, 20 hours, value bins

pIC50 (GM-CSF) | pIC50 (IL-5) | pIC50 (IL-13) | pIC50 (IL-2) | pIC50 (INF-γ) | pIC50 (IL-10) | pIC50 (TNF-α) | pIC50 (RBL cells) | pIC50 (IL-4) | pIC50 (IL-2 production [4]) | SMILES | inhibition of Icrac in Jurkat cells [1] [%] | IL-2 production after IV infusion (FIG. 3) (IL-2 production [2]) | TNF-α production after IV infusion (FIG. 4) (TNF-α production) | inhibition of ICRAC current in primary T cells compared with RBL cells (FIG. 1) [3]
7.01 | 7.96 | 7.29 | 8.22 | 7.38 | < 6.00 | 7.17 | 6.42 | 7.15 |  | COc1ccc(OC)c(-c2ccc(NC(=O)c3cccc(F)c3F)cc2)c1 [Compound 31, N-(2′,5′-Dimethoxy-biphenyl-4-yl)-2,3-difluoro-benzamide] | > 43 | significantly inhibit IL-2 production | significantly inhibit TNF-α production | inhibits ICRAC current equally well in primary T cells as in RBL cells
6.35 | 7.68 | 7.12 | 7.70 | 7.06 | < 6.00 | 6.57 | 6.37 | 6.35 | > 7.00 | COc1ccc(OC)c(-c2ccc(NC(=O)c3ccncc3F)cc2)c1 [Compound 66, 3-fluoro-pyridine-4-carboxylic acid (2′,5′-dimethoxybiphenyl-4-yl)-amide] | > 90 |  |  | 

— patent publication US20050148633A1 (priority 2003, published 2005)
